Assay results as given in US11192891B2, “Diazaspiro ROCK inhibitors” (BRISTOL-MYERS SQUIBB COMPANY, priority 2017, dated 2021).
Blank lines part the entries; values can stand above or below the compound they belong to.

Target: ROCK2 (Homo sapiens, UniProt O75116)
Assay: ROCK kinase inhibition assay, FITC peptide substrate, LABCHIP 3000 readout
Type: biochemical
Settings: 5 μM ATP, 1.5 μM peptide substrate
Protocol: Compounds were dissolved in DMSO so that the final concentration of DMSO was <2%, and the reaction was initiated with Rho kinase variants. After incubation, the reaction was terminated by the addition of EDTA and the phosphorylated and non-phosphorylated peptides separated using a LABCHIP® 3000 Reader (Caliper Life Sciences). […] Compounds were tested in dose-response format, and the inhibition of kinase activity was calculated at each concentration of compound.

Chain of ROCK2 (O75116 whole entry, species assumed): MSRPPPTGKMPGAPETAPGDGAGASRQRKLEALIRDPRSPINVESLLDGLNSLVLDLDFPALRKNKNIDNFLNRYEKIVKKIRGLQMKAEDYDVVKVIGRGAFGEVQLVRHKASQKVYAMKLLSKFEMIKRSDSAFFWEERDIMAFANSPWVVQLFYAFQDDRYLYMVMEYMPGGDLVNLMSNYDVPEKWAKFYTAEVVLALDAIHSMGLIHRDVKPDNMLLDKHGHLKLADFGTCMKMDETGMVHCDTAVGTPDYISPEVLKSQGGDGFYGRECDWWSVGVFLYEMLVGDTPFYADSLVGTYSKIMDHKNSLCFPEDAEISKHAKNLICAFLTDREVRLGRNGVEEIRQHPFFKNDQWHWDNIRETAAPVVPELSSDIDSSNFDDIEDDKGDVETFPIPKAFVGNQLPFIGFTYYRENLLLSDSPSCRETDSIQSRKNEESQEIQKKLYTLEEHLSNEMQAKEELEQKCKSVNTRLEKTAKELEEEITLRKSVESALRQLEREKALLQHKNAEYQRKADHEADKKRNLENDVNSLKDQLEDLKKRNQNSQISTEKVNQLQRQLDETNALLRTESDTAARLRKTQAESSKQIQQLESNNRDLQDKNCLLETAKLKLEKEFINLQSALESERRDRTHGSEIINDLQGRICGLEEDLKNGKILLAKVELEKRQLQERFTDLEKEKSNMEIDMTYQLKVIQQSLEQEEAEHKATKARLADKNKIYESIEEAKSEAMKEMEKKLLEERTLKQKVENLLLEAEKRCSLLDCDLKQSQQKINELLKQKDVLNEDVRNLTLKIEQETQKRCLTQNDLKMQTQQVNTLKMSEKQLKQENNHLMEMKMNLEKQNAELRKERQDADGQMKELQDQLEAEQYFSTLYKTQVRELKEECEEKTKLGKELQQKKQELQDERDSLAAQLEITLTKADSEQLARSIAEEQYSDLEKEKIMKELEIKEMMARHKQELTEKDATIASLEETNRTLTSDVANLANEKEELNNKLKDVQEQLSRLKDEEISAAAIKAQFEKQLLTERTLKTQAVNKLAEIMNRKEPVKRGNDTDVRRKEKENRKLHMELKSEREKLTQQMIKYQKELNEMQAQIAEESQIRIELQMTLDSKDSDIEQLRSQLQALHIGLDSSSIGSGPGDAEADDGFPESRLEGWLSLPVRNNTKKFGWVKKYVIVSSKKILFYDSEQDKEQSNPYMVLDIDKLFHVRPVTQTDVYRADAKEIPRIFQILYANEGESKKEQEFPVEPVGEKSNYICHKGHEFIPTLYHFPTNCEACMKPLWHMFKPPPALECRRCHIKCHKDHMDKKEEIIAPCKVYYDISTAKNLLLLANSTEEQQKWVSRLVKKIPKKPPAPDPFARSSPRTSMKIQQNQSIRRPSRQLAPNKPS

SMILES: COc1cc(N2CCC3(CCN(S(=O)(=O)c4ccc5ncsc5c4)CC3)C2=O)ccc1-c1cn[nH]c1 [Example 211, 8-(1,3-benzothiazole-6-sulfonyl)-2-[3-methoxy-4-(1H-pyrazol-4-yl)phenyl]-2,8-diazaspiro[4.5]decan-1-one]
IC50: 46 nM

SMILES: COc1cc(N2CCC3(CCN(C(=O)c4cc(C)on4)CC3)C2=O)ccc1-c1cn[nH]c1 [Example 104, 2-[3-methoxy-4-(1H-pyrazol-4-yl)phenyl]-8-(5-methyl-1,2-oxazole-3-carbonyl)-2,8-diazaspiro[4.5]decan-1-one]
IC50: 72 nM

SMILES: COc1cc(N2CCC3(CCN(S(=O)(=O)c4ccc5[nH]c(=O)[nH]c(=O)c5c4)CC3)C2=O)ccc1-c1cn[nH]c1 [Example 209, 6-({2-[3-methoxy-4-(1H-pyrazol-4-yl)phenyl]-1-oxo-2,8-diazaspiro[4.5]decan-8-yl}sulfonyl)-1,2,3,4-tetrahydroquinazoline-2,4-dione]
IC50: 410 nM

SMILES: COc1ccc(C(=O)N2CCC3(CC2)CCN(c2ccc(-c4cn[nH]c4)c(OC)c2)C3=O)c(OC)c1 [Example 174, 8-(2,4-dimethoxybenzoyl)-2-[3-methoxy-4-(1H-pyrazol-4-yl)phenyl]-2,8-diazaspiro[4.5]decan-1-one]
IC50: 29 nM

SMILES: COc1cc(N2CCC3(CCN(C(=O)c4ccc5oc(C)nc5c4)CC3)C2=O)ccc1-c1cn[nH]c1 [Example 119, 2-[3-methoxy-4-(1H-pyrazol-4-yl)phenyl]-8-(2-methyl-1,3-benzoxazole-5-carbonyl)-2,8-diazaspiro[4.5]decan-1-one]
IC50: 70 nM

SMILES: COc1ccc(C(=O)N2CCC3(CCN(c4ccc(-c5cn[nH]c5)cc4)C3=O)C2)cc1 (centres unmarked) [Example 45, 7-(4-methoxybenzoyl)-2-[4-(1H-pyrazol-4-yl)phenyl]-2,7-diazaspiro[4.4]nonan-1-one]
IC50: 180 nM

SMILES: COc1cc(N2CCC3(CCN(C(=O)c4cc(=O)n5nnnc5[nH]4)CC3)C2=O)ccc1-c1cn[nH]c1 [Example 129, 2-[3-methoxy-4-(1H-pyrazol-4-yl)phenyl]-8-{7-oxo-4H,7H-[1,2,3,4]tetrazolo[1,5-a]pyrimidine-5-carbonyl}-2,8-diazaspiro[4.5]decan-1-one]
IC50: 292 nM

SMILES: COc1cc(N2CCC3(CCN(C(=O)c4ccc(N5CCNCC5)cc4)CC3)C2=O)ccc1-c1cn[nH]c1 [Example 130, 2-[3-methoxy-4-(1H-pyrazol-4-yl)phenyl]-8-[4-(piperazin-1-yl)benzoyl]-2,8-diazaspiro[4.5]decan-1-one]
IC50: 0.4 nM

SMILES: COc1cc(N2CCC3(CCN(C(=O)c4cc5ccccc5s4)CC3)C2=O)ccc1-c1cn[nH]c1 [Example 76, 8-(1-benzothiphene-2-carbonyl)-2-[3-methoxy-4-(1H-pyrazol-4-yl)phenyl]-2,8-diazaspiro[4.5]decan-1-one]
IC50: 27 nM

SMILES: COc1ccccc1C(=O)N1CCC2(CC1)CCN(c1ccc(-c3cn[nH]c3)cc1)C2=O [Example 3, 8-(2-methoxybenzoyl)-2-[4-(1H-pyrazol-4-yl)phenyl]-2,8-diazaspiro[4.5]decan-1-one]
IC50: 160 nM

SMILES: COc1cc(N2CCC3(CCN(C(=O)c4ccc(-n5ccccc5=O)cc4)CC3)C2=O)ccc1-c1cn[nH]c1 [Example 117, 2-[3-methoxy-4-(1H-pyrazol-4-yl)phenyl]-8-[4-(2-oxo-1,2-dihydropyridin-1-yl)benzoyl]-2,8-diazaspiro[4.5]decan-1-one]
IC50: 7 nM

SMILES: COc1cc(N2CCC3(CCN(C(=O)c4cc(C5CC5)on4)CC3)C2=O)ccc1-c1cn[nH]c1 [Example 100, 8-(5-cyclopropyl-1,2-oxazole-3-carbonyl)-2-[3-methoxy-4-(1H-pyrazol-4-yl)phenyl]-2,8-diazaspiro[4.5]decan-1-one]
IC50: 6 nM

SMILES: COc1cc(N2CCC3(CCN(C(=O)c4ccc5c(cnn5C)c4)CC3)C2=O)ccc1-c1cn[nH]c1 [Example 152, 2-[3-methoxy-4-(1H-pyrazol-4-yl)phenyl]-8-(1-methyl-1H-indazole-5-carbonyl)-2,8-diazaspiro[4.5]decan-1-one]
IC50: 6.2 nM

SMILES: COc1cc(N2CCC3(CCN(C(=O)c4ccc(N5CCCC5=O)cc4)CC3)C2=O)ccc1-c1cn[nH]c1 [Example 128, 2-[3-methoxy-4-(1H-pyrazol-4-yl)phenyl]-8-[4-(2-oxopyrrolidin-1-yl)benzoyl]-2,8-diazaspiro[4.5]decan-1-one]
IC50: 13 nM

SMILES: COc1cc(N2CCC3(CCN(C(=O)c4ccc(N5CCN(CC6CCCC6)CC5)cc4)CC3)C2=O)ccc1-c1cn[nH]c1 [Example 230, 8-{4-[4-(cyclopentylmethyl)piperazin-1-yl]benzoyl}-2-[3-methoxy-4-(1H-pyrazol-4-yl)phenyl]-2,8-diazaspiro[4.5]decan-1-one]
IC50: 2.2 nM

SMILES: COc1cc(N2CCC3(CCN(C(=O)c4ccc(N5CCOCC5)cc4)CC3)C2=O)ccc1-c1cn[nH]c1 [Example 94, 2-[3-methoxy-4-(1H-pyrazol-4-yl)phenyl]-8-[4-(morpholin-4-yl)benzoyl]-2,8-diazaspiro[4.5]decan-1-one]
IC50: 2 nM

Further compounds by falling IC50, results first:

IC50: 2090 nM
SMILES: COc1cc(N2CCC3(CCN(C(=O)c4cn5[nH]c(=O)cc5nc4C)CC3)C2=O)ccc1-c1cn[nH]c1 [Example 131, 2-[3-methoxy-4-(1H-pyrazol-4-yl)phenyl]-8-{5-methyl-2-oxo-1H,2H-pyrazolo[1,5-a]pyrimidine-6-carbonyl}-2,8-diazaspiro[4.5]decan-1-one]

IC50: 1690 nM
SMILES: COc1cc(N2CCC3(CCN(C(=O)c4ccco4)CC3)C2=O)ccc1-c1cn[nH]c1 [Example 63, 8-(furan-2-carbonyl)-2-[3-methoxy-4-(1H-pyrazol-4-yl)phenyl]-2,8-diazaspiro[4.5]decan-1-one]

IC50: 1100 nM
SMILES: CN1CCN(c2ccc(C(=O)N3CCC4(CC3)CCN(c3cccc(-c5cn[nH]c5)c3)C4=O)cc2)CC1 [Example 48, 8-[4-(4-methylpiperazin-1-yl)benzoyl]-2-[3-(1H-pyrazol-4-yl)phenyl]-2,8-diazaspiro[4.5]decan-1-one]

IC50: 896 nM
SMILES: COc1cc(N2CCC3(CCN(C(=O)c4cc5cnccc5nc4C)CC3)C2=O)ccc1-c1cn[nH]c1 [Example 165, 2-[3-methoxy-4-(1H-pyrazol-4-yl)phenyl]-8-(2-methyl-1,6-naphthyridine-3-carbonyl)-2,8-diazaspiro[4.5]decan-1-one]

IC50: 497 nM
SMILES: COc1ccc(S(=O)(=O)N2CCC3(CCN(c4ccc(-c5cn[nH]c5)c(OC)c4)C3=O)CC2)cc1 [Example 206, 2-[3-methoxy-4-(1H-pyrazol-4-yl)phenyl]-8-(4-methoxybenzenesulfonyl)-2,8-diazaspiro[4.5]decan-1-one]

IC50: 464 nM
SMILES: COc1ncc(C(=O)N2CCC3(CC2)CCN(c2ccc(-c4cn[nH]c4)c(OC)c2)C3=O)cn1 [Example 99, 2-[3-methoxy-4-(1H-pyrazol-4-yl)phenyl]-8-(2-methoxypyrimidine-5-carbonyl)-2,8-diazaspiro[4.5]decan-1-one]

IC50: 456 nM
SMILES: COc1cc(N2CCC3(CCN(S(=O)(=O)c4ccc(S(N)(=O)=O)cc4)CC3)C2=O)ccc1-c1cn[nH]c1 [Example 213, 4-({2-[3-methoxy-4-(1H-pyrazol-4-yl)phenyl]-1-oxo-2,8-diazaspiro[4.5]decan-8-yl}sulfonyl)benzene-1-sulfonamide]

IC50: 453 nM
SMILES: COc1cc(N2CCC3(CCN(C(=O)c4csnn4)CC3)C2=O)ccc1-c1cn[nH]c1 [Example 77, 2-[3-methoxy-4-(1H-pyrazol-4-yl)phenyl]-8-(1,2,3-thiadiazole-4-carbonyl)-2,8-diazaspiro[4.5]decan-1-one]

IC50: 443 nM
SMILES: COc1cc(N2CCC3(CCN(C(=O)c4cscn4)CC3)C2=O)ccc1-c1cn[nH]c1 [Example 86, 2-[3-methoxy-4-(1H-pyrazol-4-yl)phenyl]-8-(1,3-thiazole-4-carbonyl)-2,8-diazaspiro[4.5]decan-1-one]

IC50: 88 nM
SMILES: COc1cc(N2CCC3(CCN(C(=O)c4cn5nc[nH]c(=O)c5c4C)CC3)C2=O)ccc1-c1cn[nH]c1 [Example 133, 2-[3-methoxy-4-(1H-pyrazol-4-yl)phenyl]-8-{5-methyl-4-oxo-3H,4H-pyrrolo[2,1-f][1,2,4]triazine-6-carbonyl}-2,8-diazaspiro[4.5]decan-1-one]

IC50: 86 nM
SMILES: COc1cnc(C(=O)N2CCC3(CC2)CCN(c2ccc(-c4cn[nH]c4)c(OC)c2)C3=O)cn1 [Example 101, 2-[3-methoxy-4-(1H-pyrazol-4-yl)phenyl]-8-(5-methoxypyrazine-2-carbonyl)-2,8-diazaspiro[4.5]decan-1-one]

IC50: 85 nM
SMILES: COc1cccc(C(=O)N2CCC3(CC2)CCN(c2ccc(-c4cn[nH]c4)cc2)C3=O)c1 [Example 5, 8-(3-methoxybenzoyl)-2-[4-(1H-pyrazol-4-yl)phenyl]-2,8-diazaspiro[4.5]decan-1-one]

IC50: 27 nM
SMILES: COc1cc(N2CCC3(CCN(C(=O)c4cc(C)[nH]n4)CC3)C2=O)ccc1-c1cn[nH]c1 [Example 187, 2-[3-methoxy-4-(1H-pyrazol-4-yl)phenyl]-8-(5-methyl-1H-pyrazole-3-carbonyl)-2,8-diazaspiro[4.5]decan-1-one]

IC50: 6 nM
SMILES: COc1ccc(C(=O)N2CCC3(CC2)CCN(c2ccc(-c4cn[nH]c4)c(OC)c2)C3=O)cc1Cl [Example 22, 8-(3-chloro-4-methoxybenzoyl)-2-[3-methoxy-4-(1H-pyrazol-4-yl)phenyl]-2,8-diazaspiro[4.5]decan-1-one]

IC50: 2.2 nM
SMILES: COc1cc(N2CCC3(CCN(C(=O)c4ccc(N5CCN(Cc6ccc(Cl)cc6)CC5)cc4)CC3)C2=O)ccc1-c1cn[nH]c1 [Example 227, 8-(4-{4-[(4-chlorophenyl)methyl]piperazin-1-yl}benzoyl)-2-[3-methoxy-4-(1H-pyrazol-4-yl)phenyl]-2,8-diazaspiro[4.5]decan-1-one]

IC50: 2.1 nM
SMILES: COc1cc(N2CCC3(CCN(C(=O)c4ccc(N5CCCC5)cn4)CC3)C2=O)ccc1-c1cn[nH]c1 [Example 54, 2-[3-methoxy-4-(1H-pyrazol-4-yl)phenyl]-8-[5-(pyrrolidin-1-yl)pyridine-2-carbonyl]-2,8-diazaspiro[4.5]decan-1-one]
